The results in this text go back to US11179358B2, “Compound for use in the prevention and treatment of neurodegenerative diseases” (Universität Wien, priority 2015, dated 2021).

Entries after “also recorded” stand apart in the source; their conditions may differ.

A word on the Kd: it is the free concentration of one partner at which half of the binding sites on the other are occupied at equilibrium, for simple one-to-one binding. A high value points to lower affinity.

For data set [1], the target named is Lcn2 (Homo sapiens, UniProt P80188). Put plainly: Isothermal titration calorimetry of Sulfocalixarene binding to Lcn2. The conditions noted are these: ITC, 25° C., 20 mM Tris pH 7.4, 50 mM NaCl, single binding site. How it is done:
Isothermal Titration Calorimetry (ITC)—Binding of free and bound Sulfocalixarene to Lcn2 was determined by ITC using a Microcal ITC200 microcalorimeter. Experiments were carried out at 25° C. in 20 mM Tris pH 7.4, 50 mM NaCl. The reference cell contained Milli Q water. The concentration of Lcn2 in the reaction cell was 50 μM. The concentration of Sulfocalixarene in the syringe was 500 μM. The titration consisted in 19 successive injections of 4 μL, with a stirring speed of 800 rpm, separated by intervals of 300 s. Data analysis was done with the Origin software assuming a single binding site.
FIG. 7 illustrates a biophysical characterization of the Sulfocalixarene binding to soluble Lcn2. (top). Overlay of ^1H-^15N HSQC spectra for Lcn2 without (red) and with Sulfocalixarene (blue). Changes of cross peak frequencies (positions) indicate residues which are affected upon binding. (bottom) Isothermal titration calorimetry traces of Sulfocalixarene binding to Lcn2. Sulfocalixarene binds to Lcn2 with a KD of about 700 nM.
(In ITC the heat of successive injections is recorded.)

Data set [2] deals with α-synuclein (Homo sapiens, UniProt P37840). Put plainly: NMR probing of interaction between α-synuclein and Sulfocalixarene, with and without POPG liposomes. In kind it is binding. Here is the method: POPG was ordered from Avantis Polar Lipids as a stock of 5 mg/ml dissolved in chloroform. The stock solution was aliquotted in glass vials, most chloroform was evaporated under nitrogen flow and the sample was then dried under vacuum for a minimum of 45 min. POPG was dissolved in the desired buffer to 1 mg/ml, kept at RT for 1 hr and subjected to 3 freeze-thaw cycles for complete solvation. The suspension was sonicated in a bath sonicator for 5 min and cycled through an extruder (Avanti® mini-Extruder) equipped with a 0.4 μm membrane for 20 times.
To allow for high concentration measurements, the resulting solution was centrifuged at 200,000×g for 10 min, 75% of the supernatant were discarded and the pellet was resuspended in the remaining 25% yielding a solution of 4 mg/ml POPG. This solution was frozen in aliquots before being used in further measurements. […]
For all NMR-measurements the protein was dialyzed into 20 mM phosphate, pH=7.4, 100 mM NaCl. […] NMR-Spectra were recorded on Varian Direct Drive 600 MHz and Varian Inova 800 MHz spectrometers with 10% D2O as lock solvent. […] Resonance assignment at near physiological conditions was readily available from a previous publication (J. N. Rao, Y. E. Kim, L. S. Park, T. S. Ulmer, Effect of pseudorepeat rearrangement on alpha-synuclein misfolding, vesicle binding, and micelle binding. J Mol Biol 390, 516-529 (2009)) (BMRB ID 16300). […]

Data set [3] has as its system transgenic animal models for Parkinson Disease (PD). Put plainly: Immunostaining of cortex in transgenic animal models for Parkinson Disease and healthy controls. In kind it is in vivo, mice. The source says: FIG. 3: Quantification of the neuronal-immunostaining experiments. Total area, average size and % area are different computational strategies to quantify the number of neurons (however, leading to the same results).
FIG. 4: Immunostaining of astrocytes in healthy (control) and transgenic animals (PD). […] The numbers given for the transgenic animal models are average numbers (and standard deviation) of astrocytes obtained for different animals and cortex regions.
FIG. 6: Quantification of α-synuclein aggregates.

The subject of data set [4] is RA/PMA differentiated SH-SY5Y cells. Put plainly: Sulfocalixarene protection against Lcn2/NGAL cytotoxicity. In kind it is cell-based. The conditions noted are these: human differentiated SH-SY5Y neuroblastoma cells. How it is done:
(§1) FIG. 11: Sulfocalixarene protection against Lcn2/NGAL cytotoxicity. A. SH-SY5Y RA/PMA differentiated cells were treated for 24 and 48 hours with two lethal concentrations of Lcn2/NGAL (100 μg/ml and 200 μg/ml). Cells were challenged with increasing concentration of Sulfocalixarene and assessed for MTT and phase contrast microscopy analyses. B. SH-SY5Y RA/PMA differentiated cells were treated for 24 and 48 hours with two lethal concentrations of MPP+ (0.5 mM and 10 mM). Cells were challenged with increasing concentration of Sulfocalixarene and assessed for MTT and phase contrast microscopy analyses.
To further study the effect of the compound in neuronal cellular cultures, a cytotoxicity assay was developed using the human Neuroblastoma SH-SY5Y cell line as an in vitro model for dopaminergic neurons. First, it was shown that RA-PMA terminally differentiated SH-SY5Y cells are sensitive to Lcn2/NGAL cytotoxicity in a dose dependent manner. Moreover, in the presence of reactive oxygen species (ROS) triggered by H2O2 the Lcn2/NGAL cytotoxicity is stronger. Second, it could be shown that SH-SY5Y terminally differentiated cells express ˜5× more the Lcn2/NGAL cognate receptor (SLC22A17) on the plasma membrane.

Data set [5] shares this test system. Put plainly: Sulfocalixarene protection against MPP+ and H2O2 cytotoxicity. It counts as cell-based, human. The conditions noted are these: Sulfocalixarene 500 μM and 100 μM. Here is the method:
as §1
FIG. 12: Sulfocalixarene protection against MPP+ and H2O2 cytotoxicity. Representative phase-contrast microscope images of RA/PMA differentiated SH-SY5Y cells, scale bar 100 μm.
Furthermore, it was shown that Sulfocalixarene protected against MPP+ (a substrate for the dopamine transporter that is taken up selectively into dopaminergic neurons where it inhibits Complex I of the mitochondrial electron transport chain) and H2O2 stress in human differentiated SH-SY5Y cells. Oxidative stress and mitochondrial damage have been implicated in the pathogenesis of several neurodegenerative diseases.

The test system of data set [6] is transgenic (tg) animals Line 61. Put plainly: Pasta Gnawing Test. In kind it is in vivo, mice. Here is the method: FIG. 13: Pasta Gnawing. The Pasta Gnawing Test is a stress-free behavioral experiment for evaluation of motor deficits in rodents. During the test, the gnawing noises of the animals while eating a piece of dry pasta are recorded. Parameters such as biting speed and number of bites/chewing episode are evaluated.
Data are shown as mean±SEM. Statistics 1-Way-Anova. Statistically significant group differences are indicated with asterisks (for One Way Anova) and hashtag (for t-test); *p<0.05; **p<0.01; #p<0.05.

Lcn2, sequence (P80188 21-198): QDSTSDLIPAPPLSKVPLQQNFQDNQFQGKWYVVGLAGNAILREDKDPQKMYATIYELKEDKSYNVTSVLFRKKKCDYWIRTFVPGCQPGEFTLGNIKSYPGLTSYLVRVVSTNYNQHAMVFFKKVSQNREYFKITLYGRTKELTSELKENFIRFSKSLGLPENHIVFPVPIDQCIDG

In data set [1], `O=S(=O)(O)c1cc2c(O)c(c1)Cc1cc(S(=O)(=O)O)cc(c1O)Cc1cc(S(=O)(=O)O)cc(c1O)Cc1cc(S(=O)(=O)O)cc(c1O)C2` [Sulfocalixarene, 4-sulfocalix[4]arene] returned a Kd of about 0.7 µM. In addition, in data set [2] (monomeric (soluble) α-Synuclein), the “location of binding site on α-synuclein (NMR chemical shift changes)” value is “N-terminal domain of α-synuclein; also recorded: N-terminal part of α-Synuclein; also recorded: N-terminal domain (1-40)”. For the same compound, the “release of α-syn from POPG liposomes (NMR signal intensity ratio)” value in data set [2] (α-syn (120 µM) with POPG-liposomes (0.8 mg/ml)) is recorded as “partly releases α-syn from the liposomes”. For the same compound, in data set [3] (healthy control animals), the number of astrocytes result was “unaffected”. In addition, in data set [3] (transgenic animal models for PD), the “number of neurons in the cortex” value is reported as “increase of the number of neurons in the cortex”. For the same compound, the “pathological α-synuclein aggregates” value in data set [3] (transgenic animals (PD)) was “reduction of pathological α-synuclein aggregates; also recorded: significant reduction of α-synuclein aggregates”. In addition, in data set [3] (transgenic animals (PD), cortex), the number of astrocytes result is reported as “increase of the number of (presumably neurotrophic quiescent) astrocytes”. Besides, in data set [4], the “neuroprotection against Lcn2/NGAL cytotoxicity” value was “has neuroprotection properties against the cytotoxic protein Lcn2/NGAL”. Also, in data set [5], the “cell viability reduction induced by H2O2” value is on record as “attenuates the reduction of cell viability” and the “cell viability reduction induced by MPP+” value is “attenuates the reduction of cell viability”. Besides, the bites per episode entry in data set [6] (day 28, tg Line 61, versus tg animals treated with vehicle) is reported as “significant more bites per episode”. Further, the biting speed entry in data set [6] (tg Line 61, versus tg animals treated with vehicle) is reported as “more biting speed”.
